From patent publication US9040570B2, “Compounds for anti-fungal treatment” (priority 2010, dated 2015)
≈ marks a conversion by molar mass, not a printed value. Entries after “also recorded” stand apart in the source; their conditions may differ.

Legend:
[1] = other laboratories (Vu and Gelli); cited from earlier work
Myo2-GFP = Myo2-GFP localization to bud neck/septum during mitosis; type: cell-based, yeast
C. neoformans [2] = experiment: MIC against C. neoformans; type: cell-based; conditions: for MIC: Cryptococcus neoformans
Experimental: (§1) To complete the characterization of the antifungal activity of triphenylethylene-based estrogen receptor antagonists, toremifene was also evaluated. […] The interaction of toremifene with FLC was also evaluated using checkerboard methods.

C. albicans [3] = experiment: MIC against C. albicans; type: cell-based; conditions: Candida albicans
Experimental: as §1

C. albicans [4] = experiment: follow-up lysis assay with C. albicans; type: cell-based
C. albicans [5] = experiment: mouse model of disseminated candidiasis, kidney fungal burden; type: in vivo; conditions: mice, 7 day pre-treatment at 200 mg/kg, C. albicans tail vein injection, 48 hour kidney burden
Experimental: FIGS. 5A and 5B show in vitro and in vivo antifungal activity of TAM/CLM.
Mice were treated with either sham or tamoxifen for seven days prior to challenge with C. albicans by tail vein injection. […] The mice were treated for an additional two days, sacrificed, and kidney fungal burdens determined. Kidney fungal burden is a well-characterized quantitative endpoint that correlates with efficacy. […] These studies further support the potential utility of this class of molecules as antifungal agents.

S. cerevisiae [6] = experiment: adenylate kinase (AK) assay with S. cerevisiae (yeast cell lysis); type: cell-based; conditions: for AK assay result (fungilytic activity): screen of Prestwick Library
Experimental: A high throughput assay that detects molecules that cause yeast cell lysis was recently developed as a new method for anti-fungal drug discovery (Krysan and DiDone, J. Biomol. Screen 13:657-64 (2008)). The adenylate kinase (AK) assay has three important features that make it a very useful tool for the identification of fungicidal anti-cryptococcal molecules: it is specific for fungicidal molecules; it is cell-based; and it is carried out with C. neoformans directly.
(§2) The AK assay was designed to take advantage of the fact that dead yeast cells lose membrane integrity and leak intracellular enzymes and proteins into culture medium. Upon cell lysis, AK is released into the medium and is detected by a coupled enzyme reaction in which AK converts 2 molecules of ADP into ATP. The ATP and luciferin are used by luciferase and a luminescent signal is generated as a reporter of yeast cell lysis (FIG. 1). The AK assay is specific for molecules that are fungicidal and is more sensitive than traditional growth-based antifungal screening assays. Additionally, traditional growth-based screening cannot differentiate between fungistatic and fungicidal molecules.
As part of the validation studies, a library of 1200 previously marketed drugs (Prestwick Library) was screened using the AK assay with S. cerevisiae (Krysan and DiDone, J. Biomol. Screen 13:657-64 (2008)). The library contained 15 clinically used antifungal drugs, of which 9 scored positive as fungilytic. […] In addition to molecules with known antifungal activity, fungilytic activity was identified in 10 drugs for which no antifungal activity had been reported previously (FIG. 3B). Subsequently, the antifungal activity of two drugs, astemizole and suloctidil was confirmed by other laboratories (Vu and Gelli, Med. Mycol. 1-9 (2009)). Thus, the AK assay is a sensitive reporter of antifungal activity in the HTS setting.

S. cerevisiae [7] = experiment: chemical genetic analysis: growth of S. cerevisiae PKC1/CMD1 strains on tamoxifen plates; type: cell-based
From the text: Previously, the molecular target of tamoxifen and related compounds in yeast was unknown. […] Both of these proteins are essential in yeast.

calmodulin with Myo2p = test system: T1, calmodulin with Myo2p; experiment: pull down of Myo2-GFP by sepharose bead immobilized calmodulin from yeast cell lysates; type: binding; conditions: in vitro, crude yeast cell lysates
T1 construct: host or cells: Myo2-GFP came from crude lysates of yeast cells expressing it

C. neoformans [8] = conditions: reported by Vu and Gelli; cited from earlier work
C. neoformans [9] = experiment: AK assay with C. neoformans (lysis); type: cell-based
From the text: as §2, with “The AK assay is specific for molecules that are fungicidal and is more sensitive than traditional growth-based antifungal screening assays.” left out
In order to determine whether the AK assay was applicable to C. neoformans, a set of molecules containing drugs was tested. […] Agents Chemother.

pathogenic yeast = experiment: in vitro susceptibility testing of a range of pathogenic yeast, CLSI standardized methods; type: cell-based
C. neoformans [10] = experiment: non-antibody mediated phagocytosis of C. neoformans by J774 cells; type: cell-based, murine; conditions: absence of opsonization; subinhibitory toremifene 4 μg/ml overnight
Experimental: C. neoformans JEC21 cells were treated overnight with DMSO or subinhibitory toremifene (4 μg/ml), washed, and exposed to J774 macrophage cells for 2 hours without antibody.

C. neoformans [11] = conditions: cited from earlier work
S. cerevisiae cells = experiment: growth assay / MIC with S. cerevisiae cells; type: cell-based; conditions: Saccharomyces cerevisiae; this strain of S. cerevisiae cells; read-out: minimum inhibitory concentration (MIC)

CCCCCCCCNC(C)C(O)c1ccc(SC(C)C)cc1 (centres unmarked) [suloctidil]
antifungal activity [1]: confirmed

CC/C(=C(\c1ccccc1)c1ccc(OCCN(C)C)cc1)c1ccccc1 [tamoxifen]
Myo2-GFP localizing to the bud neck/septum region (Myo2-GFP): prevented
MIC (C. neoformans [2]): 64 µg/mL
MIC (C. albicans [3]): 32 µg/mL
lysis (C. albicans [4]): cause lysis
lowering of kidney fungal burden (C. albicans [5]): 1.5 log10
AK assay result (fungilytic activity) (S. cerevisiae [6]): highly fungilytic
sensitivity of strains with hypofunctional alleles of CMD1 (S. cerevisiae [7]; S. cerevisiae cmd1 mutants): hypersensitive
effect of CMD1 overexpression on growth on tamoxifen plates (S. cerevisiae [7]; wild type S. cerevisiae overexpressing CMD1): suppressed toxicity
effect of PKC1 overexpression on growth on tamoxifen plates (S. cerevisiae [7]; wild type S. cerevisiae overexpressing PKC1): exacerbated its effects
ability of immobilized calmodulin to pull down Myo2-GFP (calmodulin with Myo2p): interferes

COc1ccc(CCN2CCC(Nc3nc4ccccc4n3Cc3ccc(F)cc3)CC2)cc1 [astemizole]
fungicidal activity toward C. neoformans (C. neoformans [8]): fungicidal
interaction with FLC (C. neoformans [8]): synergistic
antifungal activity [1]: confirmed
AK release / lysis (C. neoformans [9]): caused lysis

CCN(CC)CCOc1ccc(C(=C(Cl)c2ccccc2)c2ccccc2)cc1 [clomiphene]
MIC (C. neoformans [2]): 64 µg/mL
activity relative to tamoxifen (pathogenic yeast): consistently less active
lysis (C. albicans [4]): cause lysis
AK assay result (fungilytic activity) (S. cerevisiae [6]): highly fungilytic
AK release / lysis (C. neoformans [9]): cause lysis

CCCCc1oc2ccccc2c1C(=O)c1cc(I)c(OCCN(CC)CC)c(I)c1 [amiodarone]
AK release / lysis (C. neoformans [9]): AK release was detected

CN(C)CCOc1ccc(/C(=C(/CCCl)c2ccccc2)c2ccccc2)cc1 [toremifene]
MIC lower than either tamoxifen or clomiphene (C. neoformans [2]): 16 fold
increase of MIC at 30° C. relative to 37° C. (C. neoformans [2]): 2 fold
MIC (C. neoformans [2]): 4 µg/mL
MIC (C. albicans [3]): 32 µg/mL
increase of phagocytosis of C. neoformans by J774 cells (C. neoformans [10]): 2 fold
increase in AK release (C. neoformans [9]; at 4 μg/mL): 12 fold

COC1=CC(=O)C[C@@H](C)[C@]12Oc1c(Cl)c(OC)cc(OC)c1C2=O [griseofulvin]
AK assay result (fungilytic activity) (S. cerevisiae [6]): negative; also recorded: not positive

OC(Cn1cncn1)(Cn1cncn1)c1ccc(F)cc1F [fluconazole]
MIC (C. neoformans [2]): 4 µg/mL
AK assay result (fungilytic activity) (S. cerevisiae [6]): negative; also recorded: not positive
increase of phagocytosis (C. neoformans [11]; Nosanchuk et al.): 2 fold

C[C@@H]1[C@H](O)[C@@H](C)/C=C/C=C/C=C/C=C/C=C/C=C/C=C/[C@H](O[C@@H]2O[C@H](C)[C@@H](O)[C@H](N)[C@@H]2O)C[C@@H]2O[C@](O)(C[C@@H](O)C[C@@H](O)[C@H](O)CC[C@@H](O)C[C@@H](O)CC(=O)O[C@H]1C)C[C@H](O)[C@H]2C(=O)O [amphotericin B]
efficiency by which macrophages phagocytose C. neoformans (C. neoformans [11]; background statement): increase

CC[C@H](C)C[C@H](C)CCCCCCCCC(=O)N[C@H]1C[C@@H](O)[C@@H](NCCN)NC(=O)[C@@H]2[C@@H](O)CCN2C(=O)[C@H]([C@H](O)CCN)NC(=O)[C@H]([C@H](O)[C@@H](O)c2ccc(O)cc2)NC(=O)[C@@H]2C[C@@H](O)CN2C(=O)[C@H]([C@@H](C)O)NC1=O [caspofungin]
MIC (S. cerevisiae cells): 0.062 µg/mL (≈ 0.0567 µM)
concentration inducing AK release relative to concentration causing detectable change in growth rate (S. cerevisiae [6]; fold below): ~10 fold
AK release / lysis (C. neoformans [9]): not
